We go through 13 compounds from patent US11180481B2, “Oxopiperazine helix mimetics as inhibitors of the p53-MDM2 interaction” (NEW YORK UNIVERSITY, priority 2014, dated 2021).

Like-named read-outs stand apart in the source and are kept apart here.

The target in the experiment is T1, N-terminal His6-tagged Mdm225-117 (Homo sapiens, UniProt Q00987).
T1 construct: 25-117 fusion protein; made in house; host or cells: E. coli BL21 DE3 pLySS, pET-14B vector
Put plainly: Fluorescence polarization competitive binding assay with fluorescein labeled p53 peptide (Flu-p53). The settings on record: for fold decrease in binding affinity: relative to 18 (3-chloro-phenylalanine at R1). As to the method: The relative affinities of peptides for N-terminal His6-tagged Mdm225-117 were determined using fluorescence polarization based competitive binding assay with fluorescein labeled p53 peptide, Flu-p53. The polarization experiments were performed with a DTX 880 Multimode Detector (Beckman) at 25° C., with excitation and emission wavelengths at 485 nm and 535 nm, respectively. All samples were prepared in 96 well plates in 0.1% pluronic F-68 (Sigma).
For competition binding experiments, a solution of 250 nM Mdm2 and 15 nM Flu-p53 in buffer (10 mM PBS pH 7.4, 5 mM EDTA, 0.5 mM DTT, 0.1% pluronic F-68) was incubated at 25° C. in a 96 well plate. After 30 minutes, appropriate concentrations of the oxopiperazine (1 nM-100 μM) were added to the Mdm2-Flu-p53 mixture and the resulting mixtures were incubated at 25° C. for 1 hour before measuring the degree of dissociation of Flu-p53 by polarization. The EC50 was fit into equation (2) to calculate the Ki value of the oxopiperazine. Ki=KD1*FSB*((LT/(LST*FSB2−(KD1+LST+RT)*FSB+RT))−1(1−FSB)) (2)
where: • KD=KD of fluorescent probe Flu-p53 • RT=Total concentration of Mdm2 protein • LST=total concentration of p53 fluorescent peptide • FSB=Fraction of bound […] (at EC50) • LT=total concentration of oxopiperazine (EC50)
The binding affinity (KD) values reported for each peptide are the averages of 3-5 individual experiments, and were determined by fitting the experimental data to a sigmoidal dose-response nonlinear regression model on GraphPad Prism 5.0 (Roehrl et al., Biochemistry 43:16056 (2004), which is hereby incorporated by reference in its entirety).
A previously-described fluorescence polarization competition assay with a fluorescein-labeled p53 peptide was utilized to probe the binding affinity of the mimetics (Henchey et al., ChemBiochem 11:2104 (2010); Knight et al., Anal. Biochem. 300:230 (2002), each of which is hereby incorporated by reference in its entirety). […] To examine the effect of the R3 position on the binding properties, a series of compounds was designed in which this position was changed to hydrophobic, anionic, or cationic residues. These studies were performed in the context of the dimers (1-4) as well as oxopiperazine monomers linked to uncyclized dipeptides (see Table 4, supra). […] Importantly, comparisons of dimers 3 (FWLL) and 4 (FWFL) with the monomer-dipeptide sequences 11 and 12 support the hypothesis that cyclization of dipeptides in oxopiperazine rings provides a significant boost to the ability of these helix mimetics to target protein pockets Ramachandran Plots (Ramachandran & Sasisekharan, Adv. Protein Chem. 23:283 (1968), which is hereby incorporated by reference in its entirety) obtained from quantum mechanical calculations further illustrate the flexibility of the uncyclized derivative (FIGS. 9C-D) as compared to the cyclic dimer (FIGS. 9A-B).

[1] abbreviates: Table 3, oxopiperazine dimers, competitive fluorescence polarization assay, read-out: Kd (μM), binding affinity for Mdm2.
Where [2] appears, read: Table 5, restated by sequence, read-out: Experimental Kd.
The mark [3] stands for this setting: Table 6, computationally predicted dimers, competitive fluorescence polarization assay, read-out: Kd (μM), binding affinity for Mdm2.

For `CC(C)C[C@@H](C(=O)O)N1CCN(C(=O)[C@H](Cc2c[nH]c3ccccc23)N2CCN[C@@H](Cc3ccccc3)C2=O)[C@@H](C)C1=O` [Mimetic 1, FWAL-OH], the Kd came out at 65.4 ± 0.28 µM under setting [1]; 3.1 ± 2.4 µM (oxopiperazine trimers, method not stated, read-out: Kd2); 65 µM (read-out: dissociation constant, Kd).

Regarding `CC(C)C[C@@H](C(=O)O)N1CCN(C(=O)[C@H](Cc2c[nH]c3ccccc23)N2CCN[C@@H](Cc3ccccc3)C2=O)[C@@H](CCCCN)C1=O` [Mimetic 2, FWKL-OH], the “binding to Mdm2, in words” value is given as “appreciably lower affinity”.

For the compound `CC(C)C[C@@H](C(N)=O)N1CCN(C(=O)[C@H](Cc2c[nH]c3ccccc23)N2CCN[C@@H](Cc3ccccc3)C2=O)[C@@H](Cc2ccccc2)C1=O` [Mimetic 5, FWFL-NH2], the Kd under setting [1] came out at 2.88 ± 0.12 µM.

With `NCCCC[C@@H](C(N)=O)N1CCN(C(=O)[C@H](Cc2c[nH]c3ccccc23)N2CCN[C@@H](Cc3ccccc3)C2=O)[C@@H](Cc2ccccc2)C1=O` [Mimetic 6, FWFK-NH2], the “binding to Mdm2, in words” value is “rather poor binder”.

Consider `CC(C)C[C@@H](C(N)=O)N1CCN(C(=O)[C@H](Cc2c[nH]c3ccccc23)N2CCN[C@@H](CCCCN)C2=O)[C@@H](Cc2ccccc2)C1=O` [Mimetic 7, KWFL-NH2], for which the “binding to Mdm2, in words” value is reported as “poor binder”.

With `CC(C)C[C@@H](C(N)=O)N1CCN(C(=O)[C@H](C)N2CCN[C@@H](Cc3ccccc3)C2=O)[C@@H](Cc2ccccc2)C1=O` [Mimetic 8, FAFL-NH2], the Kd under setting [1] was 63.9 ± 6.8 µM.

Consider `CCCC[C@@H](C(N)=O)N1CCN(C(=O)[C@H](Cc2c[nH]c3ccccc23)N2CCN[C@@H](Cc3ccccc3)C2=O)[C@@H](Cc2ccccc2)C1=O` [Mimetic 13, FWF(Nle)-NH2], for which the Kd under setting [2] is 2.46 µM.

Regarding `CC(C)C[C@@H](C(N)=O)N1CCN(C(=O)[C@H](Cc2c[nH]c3ccccc23)N2CCN[C@@H](Cc3cccc4ccccc34)C2=O)[C@@H](Cc2ccccc2)C1=O` [Mimetic 15, (Nap)WFL-NH2], the Kd under setting [2] came to 0.85 µM. The “fold higher affinity than 5” value (relative to mimetic 5) is on record as “three-fold higher affinity”.

Take `CC(C)C[C@@H](C(N)=O)N1CCN(C(=O)[C@H](Cc2c[nH]c3ccccc23)N2CCN[C@@H](Cc3ccc(O)cc3)C2=O)[C@@H](Cc2ccccc2)C1=O` [Mimetic 16, YWFL-NH2]: the Kd reads like this: under setting [2], 0.4 µM; (read-out: ligand for Mdm2 (affinity)) 0.4 µM.

Turning to `COc1ccc(C[C@@H]2NCCN([C@@H](Cc3c[nH]c4ccccc34)C(=O)N3CCN([C@@H](CC(C)C)C(N)=O)C(=O)[C@@H]3Cc3ccccc3)C2=O)cc1` [Mimetic 17, Y(O—Me)WFL-NH2], the “binding to Mdm2, in words” value was “slightly better than 16”. Also, the Kd under setting [3] is 0.32 ± 0.01 µM.

For `CC(C)C[C@@H](C(N)=O)N1CCN(C(=O)[C@H](Cc2c[nH]c3ccccc23)N2CCN[C@@H](Cc3cccc(Cl)c3)C2=O)[C@@H](Cc2ccccc2)C1=O` [Mimetic 18, F(3-Cl)WFL-NH2], the “binding to Mdm2, in words” value is on record as “slightly better than 16”. In addition, the Kd under setting [2] was 0.33 µM.

`Cc1cccc(C[C@@H]2NCCN([C@@H](Cc3c[nH]c4ccccc34)C(=O)N3CCN([C@@H](CC(C)C)C(N)=O)C(=O)[C@@H]3Cc3ccccc3)C2=O)c1` [Mimetic 19, F(3-Me)WFL-NH2]: the “fold decrease in binding affinity” value was 8 fold. In addition, the Kd under setting [2] was 2.6 µM.

Take `CC(C)C[C@@H](C(N)=O)N1CCN(C(=O)[C@H](Cc2c[nH]c3ccccc23)N2CCN[C@@H](Cc3ccc(Cl)cc3)C2=O)[C@@H](Cc2ccccc2)C1=O` [Mimetic 20, F(4-Cl)WFL-NH2]: the “fold decrease in binding affinity” value came out at 4 fold. Further, the Kd under setting [3] is 1.29 ± 0.06 µM.
